Among the data in a melting point compilation (Tetko et al.; mined from patent text by program, amines drawn as free bases though some values may be those of a salt) are melting point values, retold here.

Broadly, the melting point is the temperature of the solid-liquid transition.

Molecule `C=C(C(=O)c1ccc(Cl)cc1)c1ccccc1` returned a melting point of 42 °C.

Regarding `c1ccc(C[C@@H]2CN(C3=Nc4ccccc4Sc4ccccc43)CCN2)cc1`, the melting point was in the range of 56 to 69 °C.

With `COC(=O)NC(=Nc1cc(OS(=O)(=O)c2cccc(C(F)(F)F)c2)ccc1NC(N)=O)NC(=O)OC`, the melting point amounted to 131 °C.

Turning to `Nc1cccc2c1-c1nc3ccccc3cc1CC2`, the melting point was 138 to 140 °C.

Consider `COC(=O)c1ccc(Cc2c(Cl)n(C)c3cc(Cl)c(CC(C)NC(=O)N(C)C)cc23)c(OC)c1` (stereo not given), for which the melting point was 175 to 176 °C.

`CCc1c(OC)nc2nc(-c3nc(C)no3)cn2c1C`: the melting point is 204 to 205 °C.

`NNc1nc(Cl)nc2cc3c(cc12)OCO3`: the melting point is more than 280 °C.

Consider `Cc1c(NC(=O)CC(C)(C)C)cc2c(c1C)OC(C)(C)C2O` (stereo not given), for which the melting point was in the range of 184 to 185 °C.

With `CC(Oc1ncn(-c2ccccc2)n1)C(=O)OCc1ccccc1` (stereo not given), the melting point is 78 to 80 °C.

As to `CCOc1cc(C=[N+]([O-])C(C)(C)CC(C)(C)C)ccc1OC`, the melting point turned out to be 77.5 °C.

`COc1cc(N)c2nccc(C)c2c1Oc1ccc(Cl)cc1Cl`: the melting point lay within 115 to 118 °C.

As for `C=CCc1c(OCC(O)CSCCO)ccc(C(C)=O)c1O` (stereo not given), the melting point fell in the range of 54 to 56 °C.

`O=C(c1cccs1)N1CCCC1` came in with a melting point of 66 to 68 °C.

With `CC(=O)NCCOc1nc(-c2ccc(F)cc2C)c2ccc(=O)n(-c3c(F)cccc3F)c2n1`, the melting point was in the range of 75 to 79 °C.

Molecule `Cc1c(N2CC3(CC3)[C@](C)(N)C2)ccc2c(=O)c(C(=O)O)cn(C3CC3)c12` gave a melting point of 227 to 230 °C.

As to `COc1ccc(C(=O)Nc2ccc3ccc(OCCN(C)C)nc3n2)cc1`, the melting point lay in the range of 77 to 80 °C.

`CC(C)=CCN1Cc2cc(Cl)c(Cl)c3[nH]c(=S)n(c23)C[C@@H]1C` returned a melting point of 173 °C.

With `CCOP(=S)(OCC)SC(=CC(=O)c1cccc(Br)c1)C(=O)O`, the melting point lay within 107 to 111 °C.

Take `COc1ccc(CCN(O)C(=O)C(N)=O)cc1OC`: the melting point was in the range of 143 to 144 °C.

In turn, `COc1ccc(Nc2ccc(C(=O)O)cc2)c2ccccc12` gave a melting point of 153 to 154 °C.

In the case of `CCCC1=C(C(=O)OCC)C(c2c(F)cccc2F)c2c[nH]nc2N1` (stereo not given), the melting point was found to be 185 °C.

For `COCCNc1nc2ccccc2n(-c2ccc(Cl)cc2)c1=O`, the melting point fell in the range of 151 to 152 °C.

As to `COc1ccc(OCC(F)(F)F)cc1N1CCN(CCCNC(=O)c2c(-c3ccccc3)noc2C)CC1`, the melting point turned out to be 125 °C.

`COc1ccc(CCc2ccncc2)c2cc(C#N)nn12`: the melting point lay in the range of 191 to 192 °C.

The molecule `CS(=O)(=O)Oc1ccc(Oc2ccccc2)cc1CC(=O)O` displayed a melting point of 121 °C.

`CCOC(=O)c1c(C(F)(F)F)nn(-c2c(Cl)cc(Cl)cc2Cl)c1C`: the melting point fell in the range of 95 to 96 °C.

As to `Cn1c(=O)c2c(NC(=O)C3CCCCC3)onc2n(C)c1=O`, the melting point was in the range of 210 to 212 °C.

`CCCCCNS(=O)(=O)NC(=O)/C=C/c1c(C)nn(C)c1-n1ccc2cc(Cl)ccc21`: the melting point is 184 °C.

For `COc1ncc(-c2nn(C(C)c3oc4ccccc4c(=O)c3-c3cccc(F)c3)c3ncnc(N)c23)c(OC)n1` (stereo not given), the melting point lay in the range of 286 to 290 °C.

Consider `O=C1c2ccccc2C(=O)c2sccc21`, for which the melting point was 232 to 234 °C.

`Cc1c(C(=O)Nc2ccc(OCCCN3CCOCC3)c(C#N)c2)cnn1-c1ccc(C(F)(F)F)cc1` returned a melting point of 172 to 174 °C.

With `CCOC(=O)c1c(C(F)F)nn(C)c1Cl`, the melting point fell in the range of 37 to 39 °C.

`C#CCCCC1(S(=O)(=O)c2ccc(C)cc2)SC(=O)NC1=O` (stereo not given) came in with a melting point of 226 °C.

With `CSC(N)=C(C#N)C#N`, the melting point lay within 228 to 229 °C.

`O=C(Nc1cccc(CC(F)(F)F)c1)Nc1ccc2c(c1)COC2=O` came in with a melting point of 279 to 282 °C.

As to `O=C(c1ccoc1)c1ccc2[nH]c(=O)cc(-c3cccc(Cl)c3)c2c1`, the melting point was more than 250 °C.

In the case of `CC(C(=O)O)c1ccc2c(c1)Cc1cc([N+](=O)[O-])ccc1-2` (stereo not given), the melting point was 206 to 209 °C.

In the case of `CC(C)=CCN1c2ccccc2NC(=O)C1C` (racemic), the melting point was 92 to 93 °C.

`CCN(CC)CC(=O)Nc1cccc(-c2cc(-c3ccc(F)cc3OCOC)nc(NC(=O)c3ccco3)c2C#N)c1` showed a melting point of 126 to 128 °C.

The molecule `CC12CCC3C(CCC4=CC(=CF)CCC43CS)C1CCC2=O` (stereo not given) showed a melting point of 118 to 120 °C.

`CCOC(=O)c1cc(Cl)cc2c(=O)c(C)c(-c3ccccc3)oc12` returned a melting point of 127 to 128 °C.

Take `Cc1c(C(F)(F)F)cnn(-c2cc(OCCC3OCCCO3)c(Cl)cc2F)c1=O`: the melting point was found to be 112 °C.

Regarding `Cn1cc(-c2cc3cccnc3[nH]2)c2ccc(C(=O)Nc3nc[nH]n3)cc21`, the melting point was 343 to 345 °C.

In turn, `CN(C)C1(c2ccccc2)CCC2(OCCc3c2[nH]c2ccccc32)C(CC#N)C1` (stereo not given) came in with a melting point of 260 to 267 °C.

Take `CN(C)c1ccc(-c2nnc(S)nc2-c2ccc(N(C)C)cc2)cc1`: the melting point fell in the range of 276 to 279 °C.

Molecule `OC(c1ccccc1)C(CN1CC=C(c2ccc(Cl)cc2)CC1)c1ccccc1` (stereo not given) showed a melting point of 135 to 137 °C.

Turning to `COc1cc(OC)nc(N=C=S)n1`, the melting point lay in the range of 85 to 86 °C.

With `O=C(Nc1ccc2cc(CN3CCCC3)ccc2c1)c1ccc(-c2ccc(F)cc2)nc1`, the melting point lay within 238 to 240 °C.

Molecule `CCCCCCCC(=O)c1[nH]c(=O)[nH]c1C` came in with a melting point of 220 to 221 °C.

For `O=C(O)C(=O)CC(=O)c1cccn1CCCCc1ccccc1`, the melting point lay in the range of 119 to 121 °C.

Turning to `CCn1ncc2c1ncc1c(=O)n3nc(C)cc3n(C)c12`, the melting point was in the range of 306 to 307 °C.

In turn, `COc1cc(OC)cc(C(=O)N2CCc3cc(OCc4ccccc4)ccc3C2=O)c1` came in with a melting point of 158 to 159 °C.

Take `O=C(CCCCl)c1ccc2cc(O)c(O)cc2c1`: the melting point was in the range of 129 to 135 °C.

Regarding `CCc1cc2c(s1)SCCc1cc(=O)n(-c3ccc(Cl)cc3)nc1-2`, the melting point lay in the range of 127 to 128 °C.

In the case of `CCN(CC)CC(O)CNC(=O)Cn1ncc(-c2ccccc2)c1-c1ccccc1` (stereo not given), the melting point fell in the range of 70 to 72 °C.

`CCCCCOc1cc(C(=O)O)cc([N+](=O)[O-])c1-c1ccccc1` gave a melting point of 144 to 146 °C.

With `O=C(O)c1cc(Cl)c(F)c(F)c1F`, the melting point was in the range of 123 to 124 °C.

For `COc1ccc(-c2nc(Sc3ccc(C)cc3)[nH]c2-c2ccc(OC)cc2)cc1`, the melting point amounted to 181 °C.

For `CC(C1OCCO1)N(C)C(=O)Nc1nnc(S(=O)(=O)N(C)C)s1` (stereo not given), the melting point was 194 to 196 °C.

As for `CN(Cc1cc2c3c(c1)c(=O)c(C(=O)NCc1ccc(Cl)cc1)cn3CC(=O)N2C)C[C@@H](O)c1ccsc1`, the melting point fell in the range of 137 to 139 °C.

Turning to `CCCc1nc2c(N)nc3ccccc3c2n1CCS(C)(=O)=O`, the melting point lay in the range of 212 to 214 °C.

The molecule `Cc1oc(-c2ccccc2)nc1COc1ccc(CCc2oc(-c3ccccc3)nc2CO)cc1` had a melting point of 142 to 143 °C.

As to `Oc1cccc(-c2ccncc2)c1`, the melting point is more than 300 °C.

For the molecule `CN(CCO)Cc1cc(C(=O)c2ccc(Cl)cc2)cc(C(C)(C)C)c1O`, the melting point lay within 126 to 127 °C.

`COc1ccc(N)cc1Oc1ncc(Cl)cc1Cl`: the melting point lay within 95 to 105 °C.

For the molecule `O=C1Nc2ccccc2N(C(=O)CNCCc2ccccc2)C2CCC(Cc3ccccc3)C12` (stereo not given), the melting point fell in the range of 108 to 109 °C.

`CC1OC(=O)C(C)C(NC(=O)OCc2ccccc2)C1C(=O)OCc1ccccc1` (stereo not given) displayed a melting point of 110 to 112 °C.

`Clc1ccc(/C=C/c2cc(Cl)cc(Cl)c2)cc1` had a melting point of 94 to 96 °C.

`O=S1(=O)c2ccccc2NC(=S)c2ccc(C(F)(F)F)cc21` returned a melting point of 275 to 278 °C.

As to `Clc1ccc(OCC2COC(CBr)(c3ccc(Cl)cc3)O2)cc1` (stereo not given), the melting point is 165 °C.

In turn, `CN1CCN(C(=O)COc2cccc(-n3nc(-c4ccc(F)cc4)c4cccnc43)c2)CC1` came in with a melting point of 132 to 135 °C.

As for `CN(C)C(=O)CC(=O)c1ccc(C(=O)CC(=O)N(C)C)cc1`, the melting point lay in the range of 188 to 189 °C.

In the case of `CS(=O)(=O)c1ccc(-n2nc(C(F)(F)F)cc2-c2ccc(-c3cscn3)cc2)cc1CO`, the melting point lay within 203 to 205 °C.

The molecule `S=C(NCc1cccc(Cl)c1)N1CCc2c([nH]c3ccccc23)C1c1ccc2c(c1)OCO2` (stereo not given) returned a melting point of 189 to 191 °C.

Regarding `N#Cc1cccc(C2=Nc3ccc(C#Cc4ccc(F)cc4F)cc3NC(=O)C2)c1`, the melting point fell in the range of 240 to 246 °C.

As for `CCOCCNC1CCCCC1Cc1ccc(-c2cccc(N)n2)cc1` (stereo not given), the melting point lay in the range of 70 to 90 °C.

`CCOC(=O)Cc1csc(-c2cccc(Br)c2)n1` gave a melting point of 65 to 70 °C.

`CN(CCO)c1cc(Cl)nc(SCC(=O)O)n1`: the melting point was 188 to 190 °C.

In turn, `Nc1nc(-c2ccccc2)c(CCBr)c2ncnn12` showed a melting point of 193 to 194 °C.

Consider `Cc1cc(-c2nc3cc(Cl)cc(Cl)c3c(=O)[nH]2)cc(C)c1OCCN1CCCC1`, for which the melting point was in the range of 209 to 210 °C.

Molecule `N=C(N)c1ccc2cc(OC(=O)C3CCC(CNC(=O)OCc4ccccc4)CC3)ccc2c1` (stereo not given) showed a melting point of 167 to 170 °C.

`CCOc1ccc2c(c1)C(=O)CCC2` came in with a melting point of 34 to 36 °C.

As to `O=C(Nc1ccc(Br)cc1)N1COC2(c3ccc(F)cc3)Cc3cc(F)ccc3C2=N1` (stereo not given), the melting point lay within 208 to 209 °C.

Consider `COCOc1ccc(C=O)c2cccc(C)c12`, for which the melting point was 42 to 43 °C.

In turn, `O=C(CCc1nc(-c2ccc(Cl)cc2)co1)OC(c1ccccc1)c1ccccc1` displayed a melting point of 94 to 95 °C.

For `CN1CCC(OC2c3ccccc3CCn3cc(I)nc32)CC1` (stereo not given), the melting point was found to be 126 °C.

The molecule `CCCc1c(OCc2ccc(C(=O)NCCCCc3cccnc3)cc2)ccc(C(C)=O)c1O` showed a melting point of 91 to 95 °C.

Molecule `COC(=O)c1c(C(=O)OC)c2n(c1C)Cc1[nH]c3ccccc3c1C2` registered a melting point of 252 to 253 °C.

Molecule `Cc1c(-c2ccccc2F)[nH]c(NCc2ccccc2)c1C#N` had a melting point of 151 to 152 °C.

Consider `CC(C)(C)OC(=O)N1CCc2c(oc3cc(S(=O)(=O)c4cccc(F)c4)ccc23)C1(C)C`, for which the melting point was in the range of 58 to 60 °C.
